Assay results: patent publication US20070231828A1, “Methods of predicting behavior of cancers” (Johns Hopkins University, priority 2003, published 2007)
Entries after “also recorded” stand apart in the source; their conditions may differ. Like-named read-outs stand apart in the source and are kept apart here.

Experiments:
22RV1-GLI cells = assay: In vitro Matrigel invasion assay; assay type: cell-based, human
Description: (§1) Cells reaching the lower chamber were counted according to the manufacturer's protocol. Results were normalized to viable cell mass assayed as described above.

22RV1 cells = assay: In vitro Matrigel invasion assay; assay type: cell-based, human
Description: as §1

PC3 xenograft tumors = details: 50 mg/kg daily s.c.
Experimental: (§2) CWR22RV1 (n=14) and PC3tumor xenografts (n=20) were grown by injecting 0.1 ml of Hanks Balanced Salt Solution and Matrigel (1:1) (Beckton Dickinson, Franklin Lakes, N.J.) containing 2.5×10^6 cells subcutaneously at each of two locations (right anterior and posterior flank) per athymic mouse. […] Animals were euthanized and tumors harvested for Ki-67 staining. […] Mice were observed daily for distress and experiments were carried out according to approved institutional protocols. Individual tumor volumes were plotted and regression curves were generated using analysis software to determine individual tumor growth rates.

22RV1 xenograft tumors = details: 50 mg/kg daily s.c.
Experimental: as §2

prostate epithelium = assay: Prostate regeneration in castrated mice; assay type: in vivo, C57B16/J mice; details: castrates
Description: Prostates were collected, weighed, and processed for histology.

AT6.3 cells [1] = assay: Quantitative RT-PCR of transcripts; assay type: cell-based, rat
Description: (§3) Amplification of Hh pathway components was normalized in qRT-PCR experiments to that of endogenous phosphoglycerate kinase in each sample. Oligonucleotide primers used in quantitative reeal-time and conventional amplification of reverse transcribed mRNA (RT-PCR) are shown in Table 4.

[2] = system: AT2.1 subcutaneous tumors; assay: Dunning rat prostate carcinoma xenografts in athymic mice; assay type: in vivo; details: s.c.
AT2.1-GLI cells = assay: In vitro Matrigel invasion assay; assay type: cell-based, rat; details: 3 μM pre-treatment 24 hours
Description: as §1

AT6.3 cells [3] = assay: In vitro Matrigel invasion assay; assay type: cell-based, rat; details: 3 μM pre-treatment 24 hours, normalized to viable cell mass
Description: as §1

[4] = system: human prostate cancer cell lines; assay: Quantitative RT-PCR of transcripts; assay type: cell-based
Description: as §3

[5] = system: AT6.3 subcutaneous tumors

## CC1=C2C[C@H]3[C@@H](CC=C4C[C@@H](O)CC[C@@]43C)[C@@H]2CC[C@]12O[C@@H]1C[C@H](C)CN[C@H]1[C@H]2C [cyclopamine]
22RV1-GLI cells
  invasiveness: not affected
22RV1 cells
  invasiveness: blocked
PC3 xenograft tumors
  time to complete regression of the tumors: 20 to 24 days
22RV1 xenograft tumors
  time to complete regression of the tumors: 20 to 24 days
Prostate epithelium; DHT plus cyclopamine 50 mg/kg/day s.c. for 10 days
  prostate regeneration: abolished prostate regeneration; also recorded: completely blocked prostate regeneration
AT6.3 cells [1]; AT6.3 cells
  Snail expression: suppressed
AT6.3 cells [1]; rat metastasis-derived prostate cancer cell line
  expression of E-cadherin transcripts: increased expression
[2]
  Median Survival: No tumors
AT2.1-GLI cells
  invasiveness: did not reduce the invasiveness
AT6.3 cells [3]
  reduction of invasiveness: approximately nine-fold
[4]
  expression of transcripts encoding c-myc: reduced expression
  expression of transcripts encoding cyclin D1: reduced expression
  transcription of the gene encoding Nestin: suppressed transcription
[4]; human metastasis-derived prostate cancer cell lines
  expression of E-cadherin transcripts: increased expression
[4]; human prostate cancer cell lines
  expression of Snail transcripts: decreased expression
[4]; human prostate cancer cells
  expression of the metastasis suppressor Ndrgl: increased expression
[5]; i.p. 10 mg/kg
  Growth rate (% tumor volume/day): 9.2 ± 2.4 % tumor volume/day
[5]; i.p. 10 mg/kg/day
  Median Survival: 19 days
  metastasis: inhibited metastasis
  time by which all animals were dead: ≤ 26 days
[5]; i.p. 50 mg/kg
  Growth rate (% tumor volume/day): 4.9 ± 1.0 % tumor volume/day
  Median Survival: No death
[5]; i.p. 50 mg/kg/day
  metastasis: blocked metastasis
[5]; i.p. 50 mg/kg/day, 50 day treatment period
  death: prevented death
[5]; s.c. 50 mg/kg
  Median Survival: No tumors

## C[C@]12CCC(=O)C[C@@H]1CC[C@@H]1[C@@H]2CC[C@]2(C)[C@@H](O)CC[C@@H]12 [dihydrotestosterone]
Prostate epithelium; 50 mg/kg/d for ten days after seven days of androgen withdrawal
  prostate regeneration: re-growth of prostate of nearly normal size
